Measured values taken from US8796256B2 (Janssen Pharmaceutica NV, priority 2010, dated 2014).

Target: T1, ERR1 (also known as ERR-α or ERR-1) (Homo sapiens, UniProt P11474)
T1 sequence (P11474 193-421 limits assumed): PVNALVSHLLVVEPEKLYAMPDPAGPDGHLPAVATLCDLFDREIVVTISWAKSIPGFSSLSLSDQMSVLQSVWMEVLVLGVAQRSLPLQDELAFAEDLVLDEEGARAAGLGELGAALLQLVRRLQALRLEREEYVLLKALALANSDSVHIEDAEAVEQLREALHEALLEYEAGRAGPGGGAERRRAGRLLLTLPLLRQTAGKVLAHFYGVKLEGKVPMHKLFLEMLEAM
Assay: TR-FRET assay (disruption of co-activator peptide binding to ERR1 LBD)
Type: biochemical
Settings: 6 nM 6His-ERR1LBD, 6 nM GST-SRC-2 peptide; average of 3 independent experiments
Summary of the method: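 Homogeneous TR-FRET measuring displacement of GST-hSRC2 co-activator peptide (6 nM) from His-tagged ERR1 LBD (6 nM), detected with α-GST Eu cryptate (30 nM) and α-His-XL665 (7.5 nM). Buffer 25 mM Tris pH 8, 2.5 mM Hepes, 20 mM KCl, 1 mM DTT, 0.05 mg/mL delipidated BSA; equilibration 4-18 h at 25° C. Hyperbolic dose-response fit, mean of 3 experiments.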

## Cc1nn(Cc2ccc(Cl)cc2C(F)(F)F)c2ccc(/C=C3\SC(=O)N([C@@H]4CCN(C)C[C@H]4F)C3=O)cc12 (relative stereo) [Compound 335, (5Z)-5-({1-[4-Chloro-2-(trifluoromethyl)benzyl]-3-methyl-1H-indazol-5-yl}methylidene)-3-[trans-3-fluoro-1-methylpiperidin-4-yl]-1,3-thiazolidine-2,4-dione]
  EC50: 46 nM

## O=C1S/C(=C\c2ccc3c(cnn3Cc3ccc(Cl)cc3C(F)(F)F)c2)C(=O)N1CCNS(=O)(=O)N1CCOCC1 [Compound 398, N-{2-[(5Z)-5-({1-[4-Chloro-2-(trifluoromethyl)benzyl]-1H-indazol-5-yl}methylidene)-2,4-dioxo-1,3-thiazolidin-3-yl]ethyl}morpholine-4-sulfonamide]
  EC50: 10 nM

## O=C1S/C(=C\c2ccc3c(cnn3Cc3ccc(C(F)(F)F)cc3C(F)(F)F)c2)C(=O)N1C[C@@H]1CCCN1 [Compound 83, (5Z)-5-({1-[2,4-Bis(trifluoromethyl)benzyl]-1H-indazol-5-yl}methylidene)-3-[(2S)-pyrrolidin-2-ylmethyl]-1,3-thiazolidine-2,4-dione]
  EC50: 82 nM

## O=C(O)/C=C/CN1C(=O)S/C(=C\c2ccc3c(cnn3Cc3ccc(Cl)cc3C(F)(F)F)c2)C1=O [Compound 376, (2E)-4-[(5Z)-5-({1-[4-Chloro-2-(trifluoromethyl)benzyl]-1H-indazol-5-yl}methylidene)-2,4-dioxo-1,3-thiazolidin-3-yl]but-2-enoic acid]
  EC50: 65 nM

## COCCN1C[C@H](O)C[C@H]1CN1C(=O)S/C(=C\c2ccc3c(cnn3Cc3ccc(Cl)cc3C(F)(F)F)c2)C1=O [Compound 188, (5Z)-5-({1-[4-Chloro-2-(trifluoromethyl)benzyl]-1H-indazol-5-yl}methylidene)-3-{[(2S,4R)-4-hydroxy-1-(2-methoxyethyl)pyrrolidin-2-yl]methyl}-1,3-thiazolidine-2,4-dione]
  EC50: 60 nM

## CN1C[C@H](O)C[C@H]1CN1C(=O)S/C(=C\c2ccc3c(cnn3Cc3ccc(Cl)cc3C(F)(F)F)c2)C1=O [Compound 191, (5Z)-5-({1-[4-Chloro-2-(trifluoromethyl)benzyl]-1H-indazol-5-yl}methylidene)-3-{[(2S,4R)-4-hydroxy-1-methylpyrrolidin-2-yl]methyl}-1,3-thiazolidine-2,4-dione]
  EC50: 19 nM

## O=C(O)CN1C(=O)S/C(=C\c2ccc3c(c2)c(F)nn3Cc2ccc(Cl)cc2C(F)(F)F)C1=O [Compound 406, [(5Z)-5-({1-[4-Chloro-2-(trifluoromethyl)benzyl]-3-fluoro-1H-indazol-5-yl}methylidene)-2,4-dioxo-1,3-thiazolidin-3-yl]acetic acid]
  EC50: 13 nM

## O=C1S/C(=C\c2ccc3c(cnn3Cc3ccc(Cl)cc3C(F)(F)F)c2)C(=O)N1C[C@H]1CCCNC1 [Compound 96, (5Z)-5-({1-[4-Chloro-2-(trifluoromethyl)benzyl]-1H-indazol-5-yl}methylidene)-3-[(3S)-piperidin-3-ylmethyl]-1,3-thiazolidine-2,4-dione]
  EC50: 67 nM

## O=C1S/C(=C\c2ccc3c(cnn3Cc3ccc(Cl)cc3C(F)(F)F)c2)C(=O)N1C1(C(=O)O)CCCCC1 [Compound 218, 1-[(5Z)-5-({1-[4-Chloro-2-(trifluoromethyl)benzyl]-1H-indazol-5-yl}methylidene)-2,4-dioxo-1,3-thiazolidin-3-yl]cyclohexanecarboxylic acid]
  EC50: 88 nM

## COC(=O)NC1(CN2C(=O)S/C(=C\c3ccc4c(cnn4Cc4ccc(Cl)cc4C(F)(F)F)c3)C2=O)CCOCC1 [Compound 309, Methyl (4-{[(5Z)-5-({1-[4-chloro-2-(trifluoromethyl)benzyl]-1H-indazol-5-yl}methylidene)-2,4-dioxo-1,3-thiazolidin-3-yl]methyl}tetrahydro-2H-pyran-4-yl)carbamate]
  EC50: 15 nM

## COc1ccc(Cn2ncc3cc(/C=C4\SC(=O)N(CCN5CC[C@@H](F)C5)C4=O)ccc32)c(C(F)(F)F)c1 [Compound 13, (5Z)-3-{2-[(3R)-3-Fluoropyrrolidin-1-yl]ethyl}-5-[(1-{[4-(methyloxy)-2-(trifluoromethyl)phenyl]methyl}-1H-indazol-5-yl)methylidene]-1,3-thiazolidine-2,4-dione]
  EC50: 43 nM

## O=C1S/C(=C\c2ccc3c(cnn3Cc3ccc(Cl)cc3C(F)(F)F)c2)C(=O)N1CCN1CCC(F)(F)C1 [Compound 116, (5Z)-5-({1-[4-Chloro-2-(trifluoromethyl)benzyl]-1H-indazol-5-yl}methylidene)-3-[2-(3,3-difluoropyrrolidin-1-yl)ethyl]-1,3-thiazolidine-2,4-dione]
  EC50: 180 nM

## CCN1CC[C@@H](N2C(=O)S/C(=C\c3ccc4c(cnn4Cc4ccc(Cl)cc4C(F)(F)F)c3)C2=O)[C@H](F)C1 [Compound 386, (5Z)-5-({1-[4-Chloro-2-(trifluoromethyl)benzyl]-1H-indazol-5-yl}methylidene)-3-[(3R,4R)-1-ethyl-3-fluoropiperidin-4-yl]-1,3-thiazolidine-2,4-dione]
  EC50: 42 nM

## COc1ccc(Cn2ncc3cc(/C=C4\SC(=O)N(CCN5C[C@@H](C)O[C@@H](C)C5)C4=O)ccc32)c(C(F)(F)F)c1 [Compound 21, (5Z)-3-{2-[cis-2,6-Dimethylmorpholin-4-yl]ethyl}-5-({1-[4-methoxy-2-(trifluoromethyl)benzyl]-1H-indazol-5-yl)methylidene)-1,3-thiazolidine-2,4-dione]
  EC50: 9 nM

## O=C1S/C(=C\c2ccc3c(cnn3Cc3ccc(C(F)(F)F)cc3C(F)(F)F)c2)C(=O)N1CCN1CCCC1 [Compound 84, (5Z)-5-({1-[2,4-Bis(trifluoromethyl)benzyl]-1H-indazol-5-yl}methylidene)-3-(2-pyrrolidin-1-ylethyl)-1,3-thiazolidine-2,4-dione]
  EC50: 580 nM

## CCN1CC[C@H](N2C(=O)S/C(=C\c3ccc4c(cnn4Cc4ccc(Cl)cc4C(F)(F)F)c3)C2=O)C1 [Compound 119, (5Z)-5-({1-[4-Chloro-2-(trifluoromethyl)benzyl]-1H-indazol-5-yl}methylidene)-3-[(3S)-1-ethylpyrrolidin-3-yl]-1,3-thiazolidine-2,4-dione]
  EC50: 40 nM

## O=C1S/C(=C\c2ccc3c(cnn3Cc3ccc(Cl)cc3C(F)(F)F)c2)C(=O)N1OCCN1CCCC1 [Compound 289, (5Z)-5-({1-[4-Chloro-2-(trifluoromethyl)benzyl]-1H-indazol-5-yl}methylidene)-3-(2-pyrrolidin-1-ylethoxy)-1,3-thiazolidine-2,4-dione]
  EC50: 17 nM

## CS(=O)(=O)NN1C(=O)S/C(=C\c2ccc3c(c2)c(C#N)nn3Cc2ccc(C(F)(F)F)cc2C(F)(F)F)C1=O [Compound 369, N-[(5Z)-5-({1-[2,4-Bis(trifluoromethyl)benzyl]-3-cyano-1H-indazol-5-yl}methylidene)-2,4-dioxo-1,3-thiazolidin-3-yl]methanesulfonamide]
  EC50: 64 nM

## CNN1C(=O)S/C(=C\c2ccc3c(cnn3Cc3ccc(C(F)(F)F)cc3C(F)(F)F)c2)C1=O [Compound 357, (5Z)-5-({1-[2,4-Bis(trifluoromethyl)benzyl]-1H-indazol-5-yl}methylidene)-3-(methylamino)-1,3-thiazolidine-2,4-dione]
  EC50: 39 nM

## O=C(O)CN1C(=O)S/C(=C\c2ccc3c(cnn3[C@@H]3CCc4cc(Cl)ccc43)c2)C1=O [Compound 179, [(5Z)-5-({1-[(1R)-5-Chloro-2,3-dihydro-1H-inden-1-yl]-1H-indazol-5-yl}methylidene)-2,4-dioxo-1,3-thiazolidin-3-yl]acetic acid]
  EC50: 3450 nM
